Measurements reported in PubChem BioAssay (NCI).
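Method: 48-hour compound exposure of cells in 96-well plates, five concentrations, linear interpolation of endpoints. GI50 marks 50% less growth. TGI denotes the concentration required for complete inhibition of growth.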

Assays:
Assay in all cases: DTP human tumour cell line panel, 48 h
OVCAR-4 ovarian = test system: OVCAR-4 ovarian
SK-OV-3 ovarian = test system: SK-OV-3 ovarian
UACC-62 melanoma = test system: UACC-62 melanoma
NCI-H460 lung = test system: NCI-H460 lung
SK-MEL-5 melanoma = test system: SK-MEL-5 melanoma
MDA-MB-435 = test system: MDA-MB-435
HT29 colon = test system: HT29 colon
IGROV1 ovarian = test system: IGROV1 ovarian
EKVX NSCLC = test system: EKVX NSCLC
UO-31 renal = test system: UO-31 renal

Row | SMILES | TGI (OVCAR-4 ovarian) | TGI (SK-OV-3 ovarian) | TGI (UACC-62 melanoma) | TGI (NCI-H460 lung) | TGI (SK-MEL-5 melanoma) | TGI (MDA-MB-435) | TGI (HT29 colon) | TGI (IGROV1 ovarian) | TGI (EKVX NSCLC) | TGI (UO-31 renal) | GI50 (OVCAR-4 ovarian) | GI50 (SK-OV-3 ovarian) | GI50 (NCI-H460 lung) | GI50 (SK-MEL-5 melanoma) | GI50 (MDA-MB-435) | GI50 (IGROV1 ovarian) | GI50 (UO-31 renal)
1 | CCOC(=O)Nc1ccc(S(=O)(=O)Nn2cnnc2)cc1 | 73.4 µM | > 100 µM | > 100 µM | > 100 µM | > 100 µM | 49.7 µM | 59.9 µM | > 100 µM | > 100 µM | > 100 µM |  |  |  |  |  |  | 
2 | NC(=S)NC/C=C/Cl | > 100 µM | > 100 µM | > 100 µM | > 100 µM | > 100 µM | > 100 µM | > 100 µM | > 100 µM | > 100 µM | > 100 µM |  |  |  |  |  |  | 
3 | Cn1c(=O)sc2cc(C(=S)N3CCCCC3)ccc21 |  | > 100 µM | > 100 µM | > 100 µM | > 100 µM | > 100 µM | > 100 µM | > 100 µM | > 100 µM |  |  |  |  |  |  |  | 
4 | Cc1cc(-c2nc3cccc(O)c3s2)ccc1N |  | > 100 µM | 33.1 µM | > 100 µM | 48.8 µM | 41.9 µM | > 100 µM | > 100 µM | > 100 µM | 25.4 µM |  |  |  |  |  |  | 
5 | CCN(CC)C(=O)CCN1CC1 | > 10 µM | > 10 µM | > 10 µM | > 10 µM | > 10 µM | > 10 µM | > 10 µM | > 10 µM | > 10 µM | > 10 µM |  |  |  |  |  |  | 
6 | Cc1cc(S(=O)(=O)/N=C(/NN)Nc2ccc(Cl)cc2)c(S)cc1Cl | 62.8 µM | 49.5 µM | 27.4 µM | 17.1 µM | 19.2 µM | 25.6 µM | 49.2 µM | 39.7 µM | 29.3 µM | 18 µM |  |  |  |  |  |  | 
7 | CCOC1=C(c2ccccc2)N2CCCCC2O1 (configuration not stated) |  |  | 10 µM | 15 µM | 4.54 µM | 16.8 µM | 16.9 µM | > 51.4 µM | > 100 µM | > 79.8 µM |  |  |  |  |  |  | 
8 | COc1cccc(C2c3cc4c(cc3OC(Nc3ccccc3)C2C)OCO4)c1O (configuration not stated) | > 100 µM | > 71.6 µM | 29 µM | 26.4 µM | 17.7 µM | 5.66 µM | 37.7 µM | 35.5 µM | > 55.9 µM | 32.4 µM |  |  |  |  |  |  | 
9 | O=c1c2nc(-c3ccccc3)oc2n(-c2ccccc2)c(=O)n1-c1ccccc1 | 36.6 µM | 40.1 µM | > 46.4 µM | > 46.4 µM | > 31.6 µM | > 46.4 µM | > 46.4 µM | 41 µM | > 46.4 µM | > 31.6 µM |  |  |  |  |  |  | 
10 | CC1=CCC[C@H]2[C@](C)(CC3=CC(=O)C(SCC(C)C)=CC3=O)[C@@H](C)CC[C@]12C | 31.8 µM | 35.1 µM | 28.8 µM | 31.5 µM | 31.5 µM | 32.5 µM | 29.9 µM | 22.9 µM | 31 µM | 25.5 µM |  |  |  |  |  |  | 
11 | CC1(C)CC[C@]2(C(=O)O)CC[C@]3(C)[C@H](C(=O)C=C4[C@@]5(C)C=C(C#N)C(=O)C(C)(C)[C@@H]5CC[C@]43C)[C@@H]2C1 | 23.2 µM | 14.8 µM | 4.43 µM | 22.2 µM | 1.69 µM | 3 µM | 6.43 µM | 7.15 µM | 9.68 µM | 6.29 µM |  |  |  |  |  |  | 
12 | O=C1/C(=C/c2cccc3ccccc23)CCc2ccc([N+](=O)[O-])cc21 |  | 77.8 µM | 65.8 µM | > 100 µM |  | 22.6 µM |  | > 100 µM | > 100 µM | > 100 µM |  |  |  |  |  |  | 
13 | CC(C)(C)C1=C(Br)C(O)(C(C)(C)C)OP1(=O)c1ccccc1 (configuration not stated) | > 100 µM | > 100 µM | > 100 µM | > 100 µM | > 100 µM | > 100 µM | > 100 µM | > 100 µM | > 100 µM |  |  |  |  |  |  |  | 
14 | CCCCN(C)/N=N/c1nc[nH]c1C(N)=O | > 100 µM | > 100 µM | > 100 µM | > 100 µM | > 100 µM |  | > 100 µM | > 100 µM | > 100 µM | > 100 µM |  |  |  |  |  |  | 
15 | CCSC1=CC2(O)N(CCc3ccc(OC)c(OC)c3)C(=O)CC2(C(=O)OC)CC1=O (configuration not stated) | > 100 µM | > 100 µM | 39.8 µM |  | > 100 µM | 46 µM | 32.9 µM | 33.6 µM | > 100 µM | 33.1 µM |  |  |  |  |  |  | 
16 | COC(=O)Cn1cnc2c(Cl)nc(Nc3ccccc3)nc21 | > 100 µM | > 100 µM | 67.2 µM | > 100 µM | > 100 µM | 79.8 µM | > 100 µM | 56.1 µM | 88 µM |  |  |  |  |  |  |  | 
17 | N/C(=N\N=C\c1ncccc1O)NO | > 100 µM | > 84.1 µM | 43 µM | > 100 µM | > 31.6 µM |  | > 100 µM | > 100 µM | > 100 µM | > 86.2 µM |  |  |  |  |  |  | 
18 | O=C(c1ccc(Cl)cc1)N1CCN=C1c1cc2ccccc2c2ccccc12 | 27.7 µM | 29.6 µM | 27.7 µM | 24.9 µM | 27.9 µM | 31.9 µM | 30 µM | 29.2 µM | 28 µM | 31.5 µM |  |  |  |  |  |  | 
19 | CC1(C)Oc2ccc3c(=O)cc(-c4ccccc4)oc3c2C1C(=O)O (configuration not stated) | > 100 µM | > 100 µM | > 100 µM |  | > 100 µM | > 100 µM | > 100 µM | > 100 µM | > 100 µM |  |  |  |  |  |  |  | 
20 | COc1ccc(C(=O)/C=C/c2cc(-c3cc(OC)c(OC)c(OC)c3)n[nH]2)cc1 | 8.32 µM | 20.5 µM |  | 3.75 µM | 3.24 µM | 5.7 µM |  | 4.81 µM |  | 2.84 µM | 2.2 µM | 3.99 µM | 1.72 µM | 1.72 µM | 2.2 µM | 2.21 µM | 1.45 µM
21 | O=[N+]([O-])/C(C(Cl)=C(Cl)Cl)=C(/Nc1cccc2cccnc12)n1nnc2ccccc21 | 45.7 µM | 32.9 µM |  | > 100 µM |  | 33 µM | 40.5 µM |  | > 100 µM | 29.9 µM |  |  |  |  |  |  | 
22 | S=C1SC(=Nc2ccccc2)C(=Nc2ccccc2)N1c1ccc2ccccc2c1 | > 100 µM | > 100 µM | > 100 µM |  | > 100 µM | > 100 µM |  | > 100 µM |  | > 100 µM |  |  |  |  |  |  | 
23 | COc1ccc(Oc2ccccc2N)cc1 | > 100 µM | > 100 µM | > 100 µM | > 100 µM | 33.6 µM |  | > 100 µM | > 100 µM | > 100 µM | > 100 µM |  |  |  |  |  |  | 
